This note sets out measurements from patent US20200190073A1, “SUBSTITUTED SUCCINIMIDE DERIVATIVES AS PESTICIDES” (BASF SE, priority 2017, published 2020).

Common to all, as to format: in vivo
Test [1] concerns Diamond back moth (Plutella xylostella). The test can be described thus: B.1 Diamond back moth, cabbage leaf dip. Conditions: foliar, read-out: mortality in comparison with untreated controls. An outline of the steps: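 Cabbage leaves were dipped in compound in 1:1 water:acetone with 0.01% surfactant, air-dried and infested with ten 3rd-instar larvae. Mortality and feeding damage (0–100% scale) were scored 72 h after treatment.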

Test [2] relates to Tobacco Budworm (Heliothis virescens). The test can be described thus: B.4 Tobacco budworm, insect diet with eggs. The conditions noted are these: 120 h, read-out: mortality in comparison with untreated controls. An outline of the steps:
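Wells held insect diet and 15–25 H. virescens eggs; compounds at several concentrations, formulated in 75:25 v/v water:DMSO, were sprayed at 10 μl onto the diet in two replicates. After 5 days at about 28±1 °C and 80±5% relative humidity, egg and larval mortality was scored visually.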

Test [3] concerns Southern Armyworm (Spodoptera eridania). The test can be described thus: B.10 Southern armyworm, sprayed lima bean plants. The conditions noted are these: 96 h, read-out: mortality in comparison with untreated controls. As to the method: B.10 Southern Armyworm (Spodoptera eridania)
The active compounds were formulated in cyclohexanone as a 10,000 ppm solution supplied in tubes. The tubes were inserted into an automated electrostatic sprayer equipped with an atomizing nozzle and they served as stock solutions for which lower dilutions were made in 50% acetone:50% water (v/v). A nonionic surfactant (Kinetic®) was included in the solution at a volume of 0.01% (v/v).
Lima bean plants (variety Sieva) were grown 2 plants to a pot and selected for treatment at the 1st true leaf stage. Test solutions were sprayed onto the foliage by an automated electrostatic plant sprayer equipped with an atomizing spray nozzle. The plants were dried in the sprayer fume hood and then removed from the sprayer. Each pot was placed into perforated plastic bags with a zip closure. About 10 to 11 armyworm larvae were placed into the bag and the bags zipped closed. Test plants were maintained in a growth room at about 250C and about 20-40% relative humidity for 4 days, avoiding direct exposure to fluorescent light (24 hour photoperiod) to prevent trapping of heat inside the bags. Mortality and reduced feeding were assessed 4 days after treatment, compared to untreated control plants.

The test system of test [4] is Green Soldier Stink Bug (Nezara viridula). The test can be described thus: B.11 Green soldier stink bug, sprayed soybean pods. Conditions: 120 h, read-out: mortality in comparison with untreated controls. An outline of the steps: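 Ten late 3rd-instar N. viridula on soybean pods in Petri dishes were sprayed with compound in 1:1 water:acetone plus 0.01% surfactant. Dishes were held at about 25° C. Percent mortality was scored after 5 days.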

Test [5] has as its system Silverleaf Whitefly (Bemisia argentifolii). The test can be described thus: CE.4 Silverleaf whitefly, comparative test. Conditions: 72 h, read-out: % mortality in comparison to untreated controls. As to the method:
(§1) The tables show % mortality in comparison to untreated controls.
CE.4 Silverleaf Whitefly (Bemisia argentifolii)
The active compounds were formulated in 50:50 acetone:water (vol:vol) and 100 ppm Kinetica™ surfactant.
Selected cotton plants were grown to the cotyledon state (one plant per pot). The cotyledons were dipped into the test solution to provide complete coverage of the foliage and placed in a well-vented area to dry. Each pot with treated seedling was placed in a plastic cup and 10 to 12 whitefly adults (approximately 3-5 day old) were introduced. The insects were collected using an aspirator and a Tygon® tubing connected to a barrier pipette tip. The tip, containing the collected insects, was then gently inserted into the soil containing the treated plant, allowing insects to crawl out of the tip to reach the foliage for feeding. The cups were covered with a reusable screened lid. Test plants were maintained in the holding room at about 25° C. and about 20-40% relative humidity for 3 days avoiding direct exposure to the fluorescent light (24 hour photoperiod) to prevent trapping of heat inside the cup. Mortality was assessed 3 days after treatment of the plants.

Test [6] relates to Cowpea Aphid (Aphis Craccivora). The test can be described thus: CE.1 Cowpea aphid, comparative test. Conditions: read-out: % mortality in comparison to untreated controls. On the procedure:
as §1
CE.1 Cowpea Aphid (Aphis Craccivora)
Potted cowpea plants colonized with approximately 100-150 aphids of various stages were sprayed after the pest population has been recorded. Population reduction was assessed after 24, 72, and 120 hours.

For test [7], the system named is Rice Brown Plant Hopper (Nilaparvata lugens). The test can be described thus: CE.2 Rice brown plant hopper, comparative test. The conditions noted are these: 10 ppm, after 72 hours, read-out: % mortality in comparison to untreated controls. As to the method: as §1
CE.2 Rice Brown Plant Hopper (Nilaparvata lugens)
Rice seedlings were cleaned and washed 24 hours before spraying. The active compounds were formulated in 50:50 acetone:water (vol:vol) and 0.1% vol/vol surfactant (EL 620) was added. Potted rice seedlings were sprayed with 5 ml test solution, air dried, placed in cages and inoculated with 10 adults. Treated rice plants were kept at about 28-29° C. and relative humidity of about 50-60%. Percent mortality was recorded after 72 hours.

Test [8] relates to Orchid Thrips (Dichromothrips Corbetti). The test can be described thus: CE.3 Orchid thrips, comparative test. The conditions noted are these: 96 h, 10 ppm, after 4 days, read-out: % mortality in comparison to untreated controls. As to the method: as §1
CE.3 Orchid Thrips (Dichromothrips Corbetti)
Dichromothrips corbetti adults used for bioassay were obtained from a colony maintained continuously under laboratory conditions. For testing purposes, the test compound was diluted to a concentration of 300 ppm (wt compound: vol diluent) in a 1:1 mixture of acetone:water (vol:vol), plus 0.01% vol/vol Kinetic® surfactant.
Thrips potency of each compound was evaluated by using a floral-immersion technique. Plastic petri dishes were used as test arenas. All petals of individual, intact orchid flowers were dipped into treatment solution and allowed to dry. Treated flowers were placed into individual petri dishes along with 10-15 adult thrips. The petri dishes were then covered with lids. All test arenas were held under continuous light and a temperature of about 280C for duration of the assay. After 4 days, the numbers of live thrips were counted on each flower, and along inner walls of each petri dish. The level of thrips mortality was extrapolated from pre-treatment thrips numbers.

Like-named read-outs stand apart in the source and are kept apart here.

As a reminder, the mortality is the percentage killed. In the case of `CN1C(=O)CC(NC(=O)c2ccc(C3=NOC(c4cc(Cl)c(F)c(Cl)c4)(C(F)(F)F)C3)cc2Cl)C1=O` (centres unmarked) [Compound I-1-2, 2-Chloro-4-[5-(3,5-dichloro-4-fluoro-phenyl)-5-(trifluoromethyl)-4H-isoxazol-3-yl]-N-(1-methyl-2,5-dioxo-pyrrolidin-3-yl)benzamide], the mortality at 300 ppm in test [1] (72 h) and in test [4] was greater than 75% throughout. Also, the mortality at 2500 ppm in test [2] is greater than 75%. In addition, the values for the mortality at 10 ppm in test [3] and in test [5] were greater than 75% and 88%, respectively.
As to `CN1C(=O)C[C@@H](NC(=O)c2ccc(C3=NOC(c4cc(Cl)c(F)c(Cl)c4)(C(F)(F)F)C3)cc2Cl)C1=O` (some centres unmarked) [Compound I-1-13], the mortality at 300 ppm in test [1] (72 h), in test [3] and in test [4] was greater than 75% in each case. Moreover, the mortality at 2500 ppm in test [2] is greater than 75%. The mortality at 10 ppm in test [3] is greater than 75%; in test [6] it was 90%.
In the case of `CN1C(=O)CC(NC(=O)c2ccc(C3=NOC(c4cc(Cl)c(F)c(Cl)c4)(C(F)(F)F)C3)c3c2CCC3)C1=O` (centres unmarked) [Compound I-1-10], the mortality at 300 ppm in test [1] (72 h) and in test [4] was greater than 75% in each case. In addition, the mortality at 2500 ppm in test [2] was greater than 75%. In test [3], the mortality at 10 ppm was greater than 75%.
For `CCN1C(=O)C[C@@H](NC(=O)c2ccc(C3=NOC(c4ccc(F)c(Cl)c4)(C(F)(F)F)C3)cc2Cl)C1=O` (some centres unmarked) [Compound I-1-53], the mortality at 300 ppm was greater than 75% in test [1] (300 ppm, cabbage leaf dip, 3rd instar larvae, 72 hours after treatment) and greater than 75% in test [4] (300 ppm, late 3rd instar, after 5 days). Further, in test [2] (2500 ppm, egg and larval mortality, 5 days), the mortality at 2500 ppm was greater than 75%. The mortality at 10 ppm in test [6] (10 ppm, sprayed cowpea plants) was 100%; in test [7], 75%; in test [8] it was 100%.
For the molecule `CCN1C(=O)CC(NC(=O)c2ccc(C3=NOC(c4cc(Cl)c(F)c(Cl)c4)(C(F)(F)F)C3)cc2Cl)C1=O` (centres unmarked) [Compound I-1-3], the mortality at 300 ppm in test [1] (72 h) and in test [4] was greater than 75% in each case. In addition, the mortality at 2500 ppm in test [2] is greater than 75%. Further, the results for the mortality at 10 ppm in test [3] and in test [5] were greater than 75% and 75%, respectively.
